In ChEMBL document CHEMBL1122473, “Synthesis and antibacterial activity of some 3-[(alkylthio)methyl]quinoxaline 1-oxide derivatives” (1983):
Values after ≈ are worked out from the molar mass of the structure shown.

Legend:
Format in all cases: functional
Escherichia coli = test: In vitro antibacterial activity under anaerobic conditions against Escherichia coli strain 51A266
Pasteurella multocida = test: In vitro antibacterial activity under anaerobic conditions against Pasteurella multocida strain 59A004
Salmonella enterica = test: In vitro antibacterial activity under anaerobic conditions against Salmonella choleraesuis strain 58B242
Streptococcus pyogenes = test: In vitro antibacterial activity under anaerobic conditions against […] pyogenes strain 2C203
[1] = test system: Brachyspira hyodysenteriae; test: In vitro antibacterial activity under anaerobic conditions against Treponema hyodysenteriae strain 94A002

SMILES	MIC (Escherichia coli)	MIC (Pasteurella multocida)	MIC (Salmonella enterica)	MIC (Streptococcus pyogenes)	MIC [1]
CCS(=O)(=O)Cc1nc2ccccc2[n+]([O-])c1C(=O)NC	12.5 µg/mL (≈ 40.4 µM)	6.25 µg/mL (≈ 20.2 µM)	25 µg/mL (≈ 80.8 µM)	12.5 µg/mL (≈ 40.4 µM)	6.25 µg/mL (≈ 20.2 µM)
CS(=O)(=O)Cc1nc2ccccc2[n+]([O-])c1C(N)=O	1.56 µg/mL (≈ 5.55 µM)	1.56 µg/mL (≈ 5.55 µM)	3.12 µg/mL (≈ 11.1 µM)	0.78 µg/mL (≈ 2.77 µM)	6.25 µg/mL (≈ 22.2 µM)
CC(=O)c1c(C[S+](C)[O-])nc2ccccc2[n+]1[O-] (configuration not stated)	25 µg/mL (≈ 94.6 µM)	3.12 µg/mL (≈ 11.8 µM)	25 µg/mL (≈ 94.6 µM)	6.25 µg/mL (≈ 23.6 µM)	6.25 µg/mL (≈ 23.6 µM)
CC(=O)c1c(CS(=O)(=O)CCO)nc2ccccc2[n+]1[O-]	25 µg/mL (≈ 80.6 µM)	1.56 µg/mL (≈ 5.03 µM)	50 µg/mL (≈ 161 µM)	6.25 µg/mL (≈ 20.1 µM)	3.12 µg/mL (≈ 10.1 µM)
COC(=O)c1c(CS(C)(=O)=O)nc2ccccc2[n+]1[O-]	3.12 µg/mL (≈ 10.5 µM)	0.78 µg/mL (≈ 2.63 µM)	6.25 µg/mL (≈ 21.1 µM)	3.12 µg/mL (≈ 10.5 µM)	1.56 µg/mL (≈ 5.26 µM)
COC(=O)c1c(CS(=O)(=O)CCO)nc2ccccc2[n+]1[O-]	6.25 µg/mL (≈ 19.2 µM)	1.56 µg/mL (≈ 4.78 µM)	25 µg/mL (≈ 76.6 µM)	0.78 µg/mL (≈ 2.39 µM)	1.56 µg/mL (≈ 4.78 µM)
CS(=O)(=O)Cc1nc2ccccc2[n+]([O-])c1C#N	> 200 µg/mL	200 µg/mL (≈ 760 µM)	> 200 µg/mL	25 µg/mL (≈ 95 µM)	
CCS(=O)(=O)Cc1nc2ccccc2[n+]([O-])c1C(C)=O	25 µg/mL (≈ 84.9 µM)	6.25 µg/mL (≈ 21.2 µM)	50 µg/mL (≈ 170 µM)	1.56 µg/mL (≈ 5.3 µM)	0.78 µg/mL (≈ 2.65 µM)
CC(=O)c1c(CS(C)(=O)=O)nc2ccccc2[n+]1[O-]	12.5 µg/mL (≈ 44.6 µM)	0.78 µg/mL (≈ 2.78 µM)	12.5 µg/mL (≈ 44.6 µM)	1.56 µg/mL (≈ 5.57 µM)	0.19 µg/mL (≈ 0.678 µM)
CC(=O)c1c(C[S+]([O-])CCO)nc2ccccc2[n+]1[O-] (configuration not stated)	25 µg/mL (≈ 84.9 µM)	3.12 µg/mL (≈ 10.6 µM)	6.25 µg/mL (≈ 21.2 µM)	25 µg/mL (≈ 84.9 µM)	
CS(=O)(=O)Cc1nc2ccccc2[n+]([O-])c1S(C)(=O)=O	25 µg/mL (≈ 79 µM)	3.12 µg/mL (≈ 9.86 µM)	25 µg/mL (≈ 79 µM)	6.25 µg/mL (≈ 19.8 µM)	> 25 µg/mL
CNC(=O)c1c(CS(=O)(=O)CCO)nc2ccccc2[n+]1[O-]	6.25 µg/mL (≈ 19.2 µM)	3.12 µg/mL (≈ 9.59 µM)	25 µg/mL (≈ 76.8 µM)	6.25 µg/mL (≈ 19.2 µM)	12.5 µg/mL (≈ 38.4 µM)
CCCS(=O)(=O)Cc1nc2ccccc2[n+]([O-])c1C(C)=O	100 µg/mL (≈ 324 µM)	3.12 µg/mL (≈ 10.1 µM)	200 µg/mL (≈ 649 µM)	6.25 µg/mL (≈ 20.3 µM)	
CNC(=O)c1c(CS(C)(=O)=O)nc2ccccc2[n+]1[O-]	3.12 µg/mL (≈ 10.6 µM)	0.78 µg/mL (≈ 2.64 µM)	6.25 µg/mL (≈ 21.2 µM)	6.25 µg/mL (≈ 21.2 µM)	3.12 µg/mL (≈ 10.6 µM)
COC(=O)N/N=C/c1c[n+]([O-])c2ccccc2[n+]1[O-] [CARBADOX]	0.39 µg/mL (≈ 1.49 µM)	0.78 µg/mL (≈ 2.97 µM)	0.19 µg/mL (≈ 0.725 µM)	0.19 µg/mL (≈ 0.725 µM)	0.19 µg/mL (≈ 0.725 µM)
